Where “and” joins values, the source holds several entries; their conditions need not be identical. Identical values can stand only once. Entries after “also recorded” stand apart in the source; their conditions may differ.
Tests used:
PKCδ = PKCδ (Homo sapiens, UniProt Q05655); experiment: scanMax kinome panel, PKCδ; format: binding; design: purchased Eurofins-DiscoverX; conditions: 200 nM CP612; read-out: scanMax % of control, PKCδ
Description: CP612 was screened for kinome specificity at 200 nM against 468 kinases using the scanMax assay panel from Eurofins-DiscoverX. CP612 inhibited 10 other WT kinases besides PKCε, all to < 10% of control: CLK1 (CDC Like Kinase 1), CLK4, PKN1 (Protein kinase N1), PKN2, PKCδ, PKCη, PKCθ, PRKG2 (Protein Kinase CGMP-Dependent 2), ROCK1, and ROCK2.

in vitro = conditions: human, microsomes; for half-life at 8.5 μM: both
Description: Microsomal clearance. To determine if CP612 was a likely substrate for first-pass hepatic metabolism, we measured the stability of CP612 in the presence of human liver microsomes (BioIVT) pooled from over 100 male and female individuals. […] Test compounds were diluted to 10 μM in 0.1M PBS, and then 51 μL were dispensed in quadruplicate into wells of a 96-well plate, which was shaken at 600 rpm at 37°C. Reactions were initiated by adding 1.5 μL of microsomes (20 mg/mL) to the wells and 3 minutes later adding 7.5 μL of 8 mM NADPH (1 mM final concentration). Samples incubated without NADPH were used as negative controls.

Plasma stability = conditions: for % Absolute: human plasma (hPL); for half-life: human
Description: Plasma stability. To determine in vitro plasma stability, we calculated in vitro plasma half-life. We incubated test substances (0.6 μL) with 60 μL human plasma (BioIVT) in quadruplicate at 37°C.

[1] = test system: PKCε-dependent mechanical hyperalgesia; experiment: Hyperalgesia induced by the PKCε activator ψεRACK, Randall-Selitto paw pressure test; conditions: for Force applied that led to paw withdrawal: one paw
Description: Thirty minutes later, rats were administered vehicle (5 μL, intradermally) or CP612 (1 μg/5 μL, intradermally) (Figure 3). We measured nociceptive thresholds at the same site, at baseline, 30 minutes after the administration of ψεRACK (time 0) and 15, 30, and 60 minutes after the administration of vehicle or CP612.
Mechanical nociceptive thresholds in rats were quantified by the Randall-Selitto paw pressure test using an Ugo Basile Analgesy-Meter. This device applies a linearly increasing mechanical force to the dorsum or plantar region of the rat hind paw. The mechanical nociceptive threshold is defined as the force in grams at which a rat withdraws its paw. […] For studies testing nociceptive thresholds after the PKCε activator ψεRACK, or after the cancer chemotherapeutic drug paclitaxel, rats were placed into cylindrical acrylic restrainers for 40 minutes before starting each session. The restrainers had lateral ports to allow access to the hind paw, as previously described ([35]), and pain thresholds were measured by applying force to the dorsum of the hind paw. Prior to starting experiments, baseline mechanical nociceptive threshold was obtained as the mean of 2–3 readings on 1 hind paw in each rat.

[2] = test system: hyperalgesia induced by morphine withdrawal; experiment: Reversal of hyperalgesia due to morphine withdrawal, von Frey SUDO; format: in vivo, C57BL/6J mice
Description: We next tested if CP612 reverses hyperalgesia induced by withdrawal from repeated administration of morphine in male and female C57BL/6J mice. Since the pain thresholds of mice receiving repeated administration of saline were not affected by treatment with vehicle or CP612 injection (Figure 6), mice in this experiment were only treated with morphine. […] Both male and female mice that received vehicle continued to show hyperalgesia up to 4 weeks after the last injection of morphine.

ROCK1 = ROCK1 (Homo sapiens, UniProt Q13464); experiment: Lance-FRET kinase assay, ROCK1; format: biochemical; design: purchased Carna Biosciences; conditions: mean of all runs (count 42 CP612; 38 CIDD-0072424); 2.5 μM ATP; read-out: IC50 (nM) [Enzyme: ROCK1], mean
Description: (§1) Kinase assays. CP612 was assayed against His-AVI–tagged human PKCε (1 nM) produced in Sf9 cells, and ROCK1 (Carna Biosciences; 5 nM) using the Lance-FRET kinase assay system (PerkinElmer Revvity). Other human recombinant PKCs (SignalChem Biotech) were assayed in triplicate at the following concentrations: PKCβII 1.6 nM, PKCγ 500 pM, PKCδ 5 nM, PKCθ 500 pM, and PKCζ 500 pM. PKCs were incubated in a 15 μL reaction volume with kinase buffer (20 mM Tris-HCL [pH 7.4], 10 mM MgCl2, 0.25 mM EGTA, 0.1 mg/mL BSA, and 0.15% Triton X-100), 50 nM ULight-labeled CREBtide […] (PerkinElmer, TRF0107, Revvity), and test compound. […] After incubation at 27°C for another 60 minutes, phosphorylation was detected using a FlexStation 3 Microplate Reader (Molecular Devices) in LANCE TR-FRET mode (excitation = 340 nm, emission = 665 nm) and expressed as relative fluorescence units (RFU). The percentage of inhibition was calculated as: (signal without test compound − signal with test compound)/(signal without test compound − signal without ATP) × 100. […]
(§2) Kinase assays used 11-point concentration-response curves and results were analyzed by nonlinear regression using Prism 9 (GraphPad Software) to determine IC50 values. […] Scores for pain threshold, conditioned place preference, and self-administration were analyzed by ANOVA using the following factors. […]

PKCθ = PKCθ (Homo sapiens, UniProt Q04759); experiment: Lance-FRET kinase assay, PKCθ; format: biochemical; design: purchased SignalChem Biotech
Description: as §1, §2

PKCθ, sequence (Q04759 whole entry): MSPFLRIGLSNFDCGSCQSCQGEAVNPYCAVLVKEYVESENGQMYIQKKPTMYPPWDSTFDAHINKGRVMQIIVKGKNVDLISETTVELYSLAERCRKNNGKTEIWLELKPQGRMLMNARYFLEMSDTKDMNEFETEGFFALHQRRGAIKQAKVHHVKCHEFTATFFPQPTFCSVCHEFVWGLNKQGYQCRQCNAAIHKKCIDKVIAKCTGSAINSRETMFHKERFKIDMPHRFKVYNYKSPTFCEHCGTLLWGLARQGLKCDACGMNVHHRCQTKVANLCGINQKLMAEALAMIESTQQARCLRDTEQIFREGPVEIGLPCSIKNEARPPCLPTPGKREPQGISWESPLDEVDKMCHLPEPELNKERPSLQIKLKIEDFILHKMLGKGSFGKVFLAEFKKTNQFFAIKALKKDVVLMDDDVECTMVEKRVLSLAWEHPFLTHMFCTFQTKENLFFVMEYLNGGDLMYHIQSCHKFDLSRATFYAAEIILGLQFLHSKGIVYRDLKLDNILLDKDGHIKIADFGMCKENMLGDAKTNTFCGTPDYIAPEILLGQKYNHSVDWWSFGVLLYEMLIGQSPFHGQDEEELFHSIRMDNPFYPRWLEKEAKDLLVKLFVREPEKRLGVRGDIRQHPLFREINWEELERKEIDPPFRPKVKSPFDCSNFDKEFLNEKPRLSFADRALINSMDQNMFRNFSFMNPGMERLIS
ROCK1, sequence (Q13464 1-477 limits assumed): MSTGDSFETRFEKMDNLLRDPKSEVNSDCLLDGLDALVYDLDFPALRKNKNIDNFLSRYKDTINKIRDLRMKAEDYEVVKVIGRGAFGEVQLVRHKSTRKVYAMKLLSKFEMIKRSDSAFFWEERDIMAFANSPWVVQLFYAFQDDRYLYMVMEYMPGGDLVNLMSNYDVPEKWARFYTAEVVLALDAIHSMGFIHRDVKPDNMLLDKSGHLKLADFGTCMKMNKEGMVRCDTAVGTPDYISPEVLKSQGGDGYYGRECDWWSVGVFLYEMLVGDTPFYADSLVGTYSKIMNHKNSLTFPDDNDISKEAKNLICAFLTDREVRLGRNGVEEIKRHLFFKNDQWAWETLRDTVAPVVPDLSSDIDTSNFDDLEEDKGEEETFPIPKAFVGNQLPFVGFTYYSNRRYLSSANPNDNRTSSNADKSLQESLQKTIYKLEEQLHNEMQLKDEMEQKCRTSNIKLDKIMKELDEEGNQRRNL
PKCδ, sequence (Q05655 whole entry): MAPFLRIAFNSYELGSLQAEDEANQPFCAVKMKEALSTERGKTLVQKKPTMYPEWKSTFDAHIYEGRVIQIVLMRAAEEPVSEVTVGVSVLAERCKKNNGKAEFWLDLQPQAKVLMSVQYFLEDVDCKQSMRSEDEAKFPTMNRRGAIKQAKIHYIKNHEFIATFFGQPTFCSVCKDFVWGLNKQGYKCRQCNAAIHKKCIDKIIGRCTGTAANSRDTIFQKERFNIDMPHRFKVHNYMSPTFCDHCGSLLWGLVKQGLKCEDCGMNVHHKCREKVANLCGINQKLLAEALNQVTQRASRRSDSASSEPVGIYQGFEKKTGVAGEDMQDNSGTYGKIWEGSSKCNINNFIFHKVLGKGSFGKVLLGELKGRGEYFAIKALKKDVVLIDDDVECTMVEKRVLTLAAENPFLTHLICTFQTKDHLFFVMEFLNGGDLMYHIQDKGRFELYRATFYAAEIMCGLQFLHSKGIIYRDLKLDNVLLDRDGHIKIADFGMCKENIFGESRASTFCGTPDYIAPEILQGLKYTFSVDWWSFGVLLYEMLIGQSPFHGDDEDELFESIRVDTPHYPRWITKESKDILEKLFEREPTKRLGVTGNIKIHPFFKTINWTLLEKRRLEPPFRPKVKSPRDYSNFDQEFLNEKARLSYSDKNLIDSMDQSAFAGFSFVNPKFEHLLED

Compound N[C@H](CNC(=O)C1(c2ccc(Cl)cc2)CCCC1)c1ccc(C(=O)Nc2ccncc2)cc1 [CP612] has a remaining binding at 0.2 µM (PKCδ) of under 10%, a half-life at 8.5 μM (in vitro; Microsomal clearance t½ (min)) of 629 ± 78.6 min and a half-life at 8.5 μM (in vitro; t1/2 (half life)) of 647 min. For the same compound, the half-life at 8.5 μM (in vitro; t1/2 (half life), Mean) was 629 min, the “CLint (clearance), Mean” value (in vitro) was 2.23 and the “Microsomal clearance (in words)” value (in vitro) was “low”. The “Microsomal clearance Cl” value (in vitro) was 2.23 ± 0.29 µL/min, the “Plasma stability (in words)” value (Plasma stability; human plasma) was “good” and the “% Absolute” value (Plasma stability; time 0 min, individual replicates) was 98.366% and 71.452% and 77.756%. The “% Absolute” value (Plasma stability; time 15 min, individual replicates) was 34.724% and 41.198% and 31.011%, the “% Absolute” value (Plasma stability; time 30 min, individual replicates) was 46.894% and 51.340% and 53.939% and the “% Absolute” value (Plasma stability; time 60 min, individual replicates) was 48.950% and 36.305% and 40.476%. The “Plasma stability Cl” value (Plasma stability; human plasma, 37°C) was 0.46 ± 0.04 µL/min, the “Cl (clearance)” value (Plasma stability; human plasma, individual replicates) was 0.504 and 0.448 and 0.437 and the “t1/2 (half life)” value (Plasma stability; human plasma, individual replicates, time axis in min, in min) was 92.829 and 95.187. For the same compound, the k (Plasma stability; human plasma, slope of Ln Transform vs Time (min), individual replicates) was -0.008 and -0.00747 and -0.007, the half-life (Plasma stability; human plasma, Plasma stability t½ (min), 37°C) was 90.2 ± 6.75 min and the half-life (Plasma stability; plasma, t1/2 (half life), Mean, human plasma, mean of replicates, time axis in min) was 90.2 min. For the same compound, the half-life (Plasma stability; plasma, t1/2 (half life), human plasma, individual replicates, time axis in min) was 82.5 min, the “Force applied that led to paw withdrawal” value ([1]; 0min (30 min after ψεRACK, before CP612)) was 90 grams and 100 grams and 96.7 grams and the “Force applied that led to paw withdrawal” value ([1]; 5min after CP612 1µg/5µL intradermally) was 120 grams and 130 grams and 115 grams and 105 grams. The “Force applied that led to paw withdrawal” value ([1]; 10min after CP612 1µg/5µL intradermally) was 100 grams and 110 grams and 130 grams and 115 grams and 120 grams and 135 grams, the “Force applied that led to paw withdrawal” value ([1]; 15min after CP612 1µg/5µL intradermally) was 90 grams and 125 grams and 130 grams and 110 grams and 115 grams and 100 grams and the “Force applied that led to paw withdrawal” value ([1]; 30min after CP612 1µg/5µL intradermally) was 120 grams and 123.3 grams and 125 grams and 115 grams. For the same compound, the “Force applied that led to paw withdrawal” value ([1]; 60min after CP612 1µg/5µL intradermally) was 105 grams and 110 grams and 115 grams and 130 grams and 120 grams, the “Force applied that led to paw withdrawal” value ([1]; baseline (before ψεRACK and CP612)) was 130 grams and 120 grams and 125 grams and the “Effect on ψεRACK-induced hyperalgesia” value ([1]; male rats, CP612 1 μg/5 μL intradermally 30 min after ψεRACK, up to 60 minutes) was “reduced; also recorded: near-complete reversal; also recorded: attenuated”. The “Effect on established morphine-withdrawal hyperalgesia” value ([2]; male and female mice, CP612 20 mg/kg i.p. 2 weeks after last morphine injection) was “reversed”, the “Duration of reversal of hyperalgesia” value ([2]; single dose CP612 20 mg/kg i.p.) was 2 weeks and the IC50 (ROCK1) was 65.9 ± 10.8 nM. The inhibition at 0.03 µM (PKCθ; 30 nM CP612, read-out: Inhibition of novel PKCs (PKCθ)) was over 50% and the IC50 (PKCθ; Figure 1B PKC isozyme panel) was 30.7 nM.

Reference: article PMC12016938, “A small molecule PKCε inhibitor reduces hyperalgesia induced by paclitaxel or opioid withdrawal” (JCI Insight, 2025)
